Source: PubChem BioAssay (NCI)
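Tested at 5 concentrations; 48 h exposure; 96-well plates; endpoints linearly interpolated, else capped at highest concentration. Here, GI50 denotes the concentration required for 50% inhibition of growth. Definition used: TGI = concentration required for complete inhibition of growth.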

Columns and labels:
Assay in all cases: growth of human tumour cells (NCI), 48 h
[1] = system: MDA-MB-435
[2] = system: HOP-62 NSCLC
[3] = system: SNB-75 CNS
[4] = system: HT29 colon
[5] = system: HCC-2998 colon
[6] = system: SNB-19 CNS
[7] = system: COLO 205 colon
[8] = system: IGROV1 ovarian
[9] = system: SK-MEL-28 melanoma
[10] = system: RXF 393 renal
[11] = system: 786-0 renal
[12] = system: SF-268 CNS
[13] = system: UACC-62 melanoma
[14] = system: SK-MEL-5 melanoma
[15] = system: BT-549 breast
[16] = system: U251 CNS
[17] = system: HCT-116 colon
[18] = system: MALME-3M melanoma

With `COc1ccccc1CNCc1nc2ccccc2[nH]1` the TGI [1] was greater than 100 µM, the TGI [2] was greater than 100 µM and the TGI [3] was greater than 100 µM. For the same compound, the TGI [4] was greater than 100 µM, the TGI [5] was greater than 100 µM and the TGI [6] was greater than 100 µM. The TGI [7] was greater than 100 µM, the TGI [8] was greater than 100 µM and the TGI [9] was greater than 100 µM. The TGI [10] was greater than 100 µM, the TGI [11] was greater than 100 µM and the TGI [12] was greater than 100 µM. For the same compound, the TGI [13] was greater than 100 µM, the TGI [14] was greater than 100 µM and the TGI [15] was greater than 100 µM. The TGI [16] was greater than 100 µM and the TGI [17] was greater than 100 µM.

With `COc1ccc(-c2cc(-c3ccco3)c(C#N)c(=S)n2C2OC(CO)C(O)C(O)C2O)cc1` (stereo not drawn) the TGI [1] was greater than 100 µM, the TGI [2] was greater than 100 µM and the TGI [3] was greater than 100 µM. For the same compound, the TGI [4] was greater than 100 µM, the TGI [5] was greater than 100 µM and the TGI [6] was greater than 100 µM. For the same compound, the TGI [7] was greater than 100 µM, the TGI [8] was greater than 100 µM and the TGI [9] was greater than 100 µM. For the same compound, the TGI [10] was greater than 100 µM, the TGI [11] was greater than 100 µM and the TGI [12] was greater than 100 µM. It also gave a TGI [14] greater than 100 µM, a TGI [18] greater than 100 µM and a TGI [15] greater than 100 µM. It also gave a TGI [16] greater than 100 µM and a TGI [17] greater than 100 µM.

Work on `COc1ccc2c(c1)/C(=C\c1cccc(/C=C3/C(=O)Nc4ccc(OC)cc43)n1)C(=O)N2` yielded a TGI [1] of 6.81 µM, a TGI [2] of 5.07 µM and a TGI [3] greater than 100 µM. It also gave a TGI [5] of 3.58 µM, a TGI [6] of 3.38 µM and a TGI [7] of 2.04 µM. It also gave a GI50 [8] of 2.2 µM, a TGI [8] greater than 100 µM and a TGI [10] of 2.89 µM. For the same compound, the TGI [11] was 2.55 µM, the TGI [12] was greater than 39.9 µM and the GI50 [13] was 0.703 µM. The TGI [13] was 2.28 µM, the TGI [14] was 2.24 µM and the TGI [18] was 5.51 µM. The TGI [15] was 6.39 µM, the TGI [16] was 5.83 µM and the TGI [17] was 1.29 µM.

Work on `Nc1nncs1` yielded a TGI [1] greater than 5000 µM, a TGI [2] of 1700 µM and a TGI [3] greater than 3710 µM. The TGI [4] was greater than 3390 µM, the TGI [5] was greater than 5000 µM and the TGI [6] was greater than 5000 µM. The TGI [7] was greater than 3840 µM, the TGI [8] was greater than 4680 µM and the TGI [9] was greater than 5000 µM. The TGI [10] was greater than 5000 µM, the TGI [11] was greater than 5000 µM and the TGI [12] was greater than 5000 µM. For the same compound, the TGI [13] was greater than 3890 µM, the TGI [14] was greater than 5000 µM and the TGI [18] was greater than 5000 µM. It also gave a TGI [15] greater than 5000 µM, a TGI [16] greater than 5000 µM and a TGI [17] greater than 5000 µM.

`CC(=C(C(=O)O)C(=O)O)c1cc(-c2cccs2)cc(-c2ccc(Cl)cc2)c1O` gave a TGI [1] of 35.1 µM, a TGI [2] of 60.4 µM and a TGI [3] of 37.6 µM. For the same compound, the TGI [4] was 40.5 µM, the TGI [5] was 38 µM and the TGI [6] was 37.1 µM. The TGI [7] was 44.8 µM, the TGI [8] was 29.3 µM and the TGI [9] was 36.3 µM. For the same compound, the TGI [10] was 29.6 µM, the TGI [11] was 32.2 µM and the TGI [12] was 54.9 µM. The TGI [13] was 35.7 µM, the TGI [14] was greater than 52.8 µM and the TGI [18] was 41 µM. The TGI [15] was 34.4 µM, the TGI [16] was 29.3 µM and the TGI [17] was 29.1 µM.

For `CO[C@H](c1ccccc1)[C@H](O)[C@](O)(c1ccccc1)P(=O)(OC)OC`, the TGI [1] was greater than 100 µM, the TGI [3] was greater than 100 µM and the TGI [4] was greater than 100 µM. For the same compound, the TGI [5] was greater than 100 µM, the TGI [6] was greater than 100 µM and the TGI [7] was greater than 100 µM. It also gave a TGI [8] greater than 100 µM, a TGI [9] greater than 100 µM and a TGI [10] greater than 100 µM. The TGI [11] was greater than 100 µM, the TGI [12] was greater than 100 µM and the TGI [13] was greater than 100 µM. For the same compound, the TGI [14] was greater than 100 µM, the TGI [18] was greater than 100 µM and the TGI [15] was greater than 100 µM. The TGI [16] was greater than 100 µM and the TGI [17] was greater than 100 µM.

`N#CC1=C(N2CCOCC2)CCC1` showed a TGI [1] greater than 100 µM, a TGI [2] greater than 100 µM and a TGI [3] greater than 100 µM. The TGI [4] was greater than 100 µM, the TGI [5] was greater than 100 µM and the TGI [6] was greater than 100 µM. It also gave a TGI [7] greater than 100 µM, a TGI [8] greater than 100 µM and a TGI [10] greater than 100 µM. It also gave a TGI [11] greater than 100 µM, a TGI [12] greater than 100 µM and a TGI [13] greater than 100 µM. The TGI [14] was greater than 100 µM, the TGI [18] was greater than 100 µM and the TGI [15] was greater than 100 µM. For the same compound, the TGI [16] was greater than 100 µM and the TGI [17] was greater than 100 µM.

Work on `CSc1ccc(-c2cc(-c3nc4ccccc4[nH]3)nc3[nH]c(-c4nc5ccccc5[nH]4)cc(=O)c23)cc1` yielded a TGI [1] greater than 100 µM, a TGI [2] greater than 100 µM and a TGI [3] greater than 100 µM. For the same compound, the TGI [4] was greater than 100 µM, the TGI [5] was 42.7 µM and the TGI [6] was greater than 100 µM. The TGI [7] was greater than 100 µM, the TGI [8] was greater than 100 µM and the TGI [10] was greater than 100 µM. The TGI [11] was greater than 100 µM, the TGI [12] was greater than 100 µM and the TGI [13] was greater than 100 µM. It also gave a TGI [18] greater than 100 µM, a TGI [15] greater than 100 µM and a TGI [16] greater than 100 µM. The TGI [17] was greater than 100 µM.

`COC(=O)/C(C#N)=C(\Nc1ccccc1)N1CCCCC1` showed a TGI [1] greater than 100 µM, a TGI [2] greater than 100 µM and a TGI [3] greater than 100 µM. The TGI [4] was greater than 100 µM, the TGI [5] was greater than 100 µM and the TGI [6] was greater than 100 µM. For the same compound, the TGI [7] was greater than 100 µM, the TGI [8] was greater than 100 µM and the TGI [9] was greater than 100 µM. For the same compound, the TGI [10] was greater than 100 µM, the TGI [11] was greater than 100 µM and the TGI [12] was greater than 100 µM. For the same compound, the TGI [14] was greater than 100 µM, the TGI [18] was greater than 100 µM and the TGI [15] was greater than 100 µM. It also gave a TGI [16] greater than 100 µM and a TGI [17] greater than 100 µM.

`CC(C)N1CCCOC(c2ccc([N+](=O)[O-])cc2)O1` (stereo not drawn) was tested, and the TGI [1] was greater than 100 µM, the TGI [2] was greater than 100 µM and the TGI [3] was greater than 100 µM. The TGI [4] was greater than 100 µM, the TGI [5] was greater than 100 µM and the TGI [7] was greater than 100 µM. The TGI [8] was greater than 100 µM, the TGI [9] was greater than 100 µM and the TGI [10] was greater than 100 µM. It also gave a TGI [11] greater than 100 µM, a TGI [12] greater than 100 µM and a TGI [13] greater than 100 µM. It also gave a TGI [14] greater than 100 µM, a TGI [18] greater than 100 µM and a TGI [15] greater than 100 µM. It also gave a TGI [16] greater than 100 µM and a TGI [17] greater than 100 µM.

In the case of `COc1ccc(NC(C)=O)cc1N1C(=O)/C(=C\c2cc(OC)c(OC)c(OC)c2)S(=O)(=O)C1c1ccccc1` (stereo not drawn), the TGI [1] is reported as greater than 100 µM, the TGI [2] is reported as greater than 100 µM and the TGI [3] is reported as greater than 100 µM. It also gave a TGI [4] greater than 100 µM, a TGI [5] greater than 100 µM and a TGI [6] greater than 100 µM. The TGI [7] was greater than 100 µM, the TGI [8] was greater than 100 µM and the TGI [9] was greater than 100 µM. The TGI [10] was greater than 100 µM, the TGI [11] was greater than 100 µM and the TGI [13] was greater than 100 µM. For the same compound, the TGI [14] was greater than 100 µM, the TGI [18] was greater than 100 µM and the TGI [15] was greater than 100 µM. The TGI [16] was greater than 100 µM and the TGI [17] was greater than 100 µM.

`C=C(Cl)C(Br)(CBr)CCC(Br)C(C)(C)Br` (stereo not drawn) showed a TGI [1] greater than 10 µM, a TGI [2] greater than 10 µM and a TGI [3] greater than 10 µM. It also gave a TGI [4] greater than 10 µM, a TGI [5] greater than 10 µM and a TGI [6] greater than 10 µM. The TGI [7] was greater than 10 µM, the TGI [8] was 3.68 µM and the TGI [9] was greater than 10 µM. The TGI [10] was 7.86 µM, the TGI [11] was 3.08 µM and the TGI [12] was 6.25 µM. For the same compound, the TGI [13] was greater than 10 µM, the TGI [14] was greater than 10 µM and the TGI [15] was greater than 10 µM. For the same compound, the TGI [16] was greater than 10 µM and the TGI [17] was 3.92 µM.

With `O=c1[nH]c(=O)n(C2CC(O)C(CO)O2)c2nc3ccc4ccccc4c3nc12` (stereo not drawn) the TGI [1] was greater than 100 µM, the TGI [2] was 98.3 µM and the TGI [3] was greater than 100 µM. For the same compound, the TGI [5] was greater than 100 µM, the TGI [6] was greater than 100 µM and the TGI [7] was greater than 100 µM. It also gave a TGI [8] greater than 100 µM, a TGI [9] greater than 100 µM and a TGI [10] greater than 100 µM. For the same compound, the TGI [11] was greater than 100 µM, the TGI [12] was greater than 100 µM and the TGI [13] was greater than 100 µM. For the same compound, the TGI [14] was greater than 100 µM, the TGI [18] was greater than 100 µM and the TGI [15] was greater than 100 µM. The TGI [16] was greater than 100 µM and the TGI [17] was greater than 100 µM.
